Assay [1] has as its system rat aortic rings. The assay can be described thus: Relaxation of precontracted isolated rat aortic rings (isometric tension, organ bath). The following applies: for pEC50 of vasorelaxation: precontracted with PE 10 μM, cumulative 1 nM-100 μM. As for the experimental part: The aortic rings were prepared as follows. 24 Rats (200-300 g) were killed under mild anesthesia with ether, and their aortas were quickly excised.
Isometric tension was recorded with a force displacement transducer (Grass, Model FT03, Quincy, Mass.). The endothelium layer was removed mechanically by inserting the tip of a pair of forceps into the lumen and rolling the tissue back and forth several times on a paper towel moistened with physiological salt solution. At the beginning of each experiment, aortic rings were stretched to a resting tension of 1.5 g and then contracted with phenylephrine (PE, […]), and once the contractions had reached a plateau, the endothelial integrity of the preparations (abbreviated as endothelium-intact in the following) or absence of endothelium (abbreviated as E^− in the following) was verified by adding ACh ([…]) to the superfusate. […] The preparations were then washed and allowed to equilibrate with Krebs solution for 45 minutes before being contracted a second time with PE. When the stable vasoconstriction to PE (10 μM) was reached, concentration-response curves to KMUP-3 and KMUP-4 (1 nM-100 μM) were constructed. Additionally, aortic rings were preconstricted with 80 mM KCl. When the contraction reached a steady state, cumulative concentration-response curves to KMUP-3 and KMUP-4 (1 nM-100 μM) were determined. In this experiment, the high-K^+ solution was prepared by replacing NaCl with KCl (80 mM) in an equimolar amount.

In assay [2] the test system is PDE4. In words: PDE4 enzyme inhibitory activity (method of Hidaka and Asano). The following applies: n=3. The assay is classed as biochemical, human. The arrangement: dose or concentration left out as unconfirmed. The method, then:
(§1) PDE activities were determined by the method of Hidaka and Asano (Hidaka H, Asano T., Biochim Biophys Acta., 429, 485-497, 1976). Washed human platelets were used for both PDE3 and PDE5 analyses, and human U937 cells for PDE4. Purified protein containing PDE3, PDE4, or PDE5 enzyme was resuspended in 50 mM Tris-HCl containing 5 mM MgCl2 (pH 7.5). […] After 20 minutes at 37° C., the samples were heated to 100° C. for 2 minutes. Ophiophagis Hannah snake venom (10 mg/mL, […]) was then added and incubated at 37° C. for 10 minutes to convert the 5′-GMP and 5′-AMP to the uncharged nucleosides guanosine and adenosine, respectively. An ion-exchange resin ([…]) was added to bind all unconverted cGMP or cAMP. After centrifuging, the supernatant was removed for determination of radiolabeled guanosine or adenosine by a liquid scintillation counter.

The target in assay [3] is PDE5 (Homo sapiens, UniProt O76074). The arrangement: dose or concentration left out as unconfirmed. To be noted: n=3. As for the experimental part:
as §1

The target of assay [4] is PDE3 (Homo sapiens, UniProt Q14432). The arrangement: dose or concentration left out as unconfirmed. The following applies: n=3. As for the experimental part:
as §1

Assay [5] deals with cAMP levels in RASMCs. In words: Intracellular cAMP levels in RASMCs (radioimmunoassay). It counts as cell-based, rat. The method, then:
(§2) Rat aortic smooth muscles were obtained as sterile surgical specimens. The tissue was washed and cut into 1- to 2-mm pieces and placed into culture dishes with Dulbecco modified Eagle medium (DMEM) containing 20% fetal bovine serum (FBS), 100 U/mL penicillin G, […], and 2 mM glutamine. After these explants attached to the culture dish, usually in 1 to 2 days, DMEM supplemented with 10% FBS, penicillin, streptomycin, and glutamine was added. Rat aortic smooth muscle cells (RASMCs) migrated from the explants in 3-5 days. At this time, the explants were removed, and cells were allowed to achieve confluence. Cells were detached using 0.05% trypsin and 0.02% EDTA at 37° C. for 5 minutes to establish secondary cultures. Cultures were maintained for no more than 4 passages. To exclude contamination by endothelial cells and fibroblasts, the cell homogeneity was further confirmed by the presence of smooth muscle-specific α-actin and α-myosin. Indirect immunofluorescence staining for a variety of antigens was carried out by first plating the cells on chamber slides, fixing the cells in 3.7% formaldehyde in phosphate-buffered saline for 10 minutes, and then permeabilizing the cells with phosphate-buffered saline plus 0.1% Triton X-100. Cells were stained with a mouse monoclonal antibody directed against the amino-terminal 10 amino acids of a-smooth muscle actin and α-myosin (Boehringer Mannheim, Indianapolis, Ind.). All were stained with fluoresceinlabeled goat anti-mouse IgG antibody.
(§3) Intracellular cGMP and cAMP levels in RASMCs were described previously (Wu B N, Lin R J, Lin C Y, et al., Br J Pharmacol., 134, 265-274, 2001). In brief, cells were grown in 24-well plates (10^5 cells/well). At confluence, monolayer cells are washed with phosphate buffer solution (PBS) and then incubated with KMUP-3, KMUP-4, or other PDE inhibitors (10 or 100 μM) for 20 minutes. Incubation is terminated by the addition of 10% trichloroacetic acid (TCA). Cell suspensions are sonicated and then centrifuged at 2500 g for 15 minutes at 4° C. To remove TCA, the supernatants are extracted 3 times with 5 volumes of water-saturated diethyl ether. Then, the supernatants are lyophilized, and cGMP or cAMP of each sample is determined by using commercially available radioimmunoassay kits (Amersham Pharmacia Biotech, Buckinghamshire, England).
In general terms: cAMP levels reflect the balance of adenylyl cyclase and phosphodiesterase activity.

Assay [6] deals with cGMP levels in RASMCs. The assay can be described thus: Intracellular cGMP levels in RASMCs (radioimmunoassay). The assay is classed as cell-based, rat. As for the experimental part:
as §2, §3

The subject of assay [7] is eNOS in HUVECs. In words: eNOS protein expression in HUVECs (Western blot, densitometry). The assay is classed as cell-based, human. The method, then:
Human umbilical vein endothelial cells (HUVECs, American Type Culture Collection, Rockville, Md.) were cultured in F12 nutrient mixture medium supplemented with 10% FBS, 1.6 mM L-glutamine, […] endothelial cell growth supplement, 100 U/mL penicillin, […], and 10 U/mL heparin. HUVECs of passages 3-5 were used for all experiments.
Endothelial cells were processed, and eNOS protein abundance was determined by Western blot analysis using anti-eNOS antibody (BD Transduction Laboratories, San Diego, Calif.) in a manner that was similar to that described in our previous study.
(A western blot detects proteins with antibodies after separation by electrophoresis.)

Molecules are shown by their SMILES.

PDE3, sequence (Q14432 whole entry): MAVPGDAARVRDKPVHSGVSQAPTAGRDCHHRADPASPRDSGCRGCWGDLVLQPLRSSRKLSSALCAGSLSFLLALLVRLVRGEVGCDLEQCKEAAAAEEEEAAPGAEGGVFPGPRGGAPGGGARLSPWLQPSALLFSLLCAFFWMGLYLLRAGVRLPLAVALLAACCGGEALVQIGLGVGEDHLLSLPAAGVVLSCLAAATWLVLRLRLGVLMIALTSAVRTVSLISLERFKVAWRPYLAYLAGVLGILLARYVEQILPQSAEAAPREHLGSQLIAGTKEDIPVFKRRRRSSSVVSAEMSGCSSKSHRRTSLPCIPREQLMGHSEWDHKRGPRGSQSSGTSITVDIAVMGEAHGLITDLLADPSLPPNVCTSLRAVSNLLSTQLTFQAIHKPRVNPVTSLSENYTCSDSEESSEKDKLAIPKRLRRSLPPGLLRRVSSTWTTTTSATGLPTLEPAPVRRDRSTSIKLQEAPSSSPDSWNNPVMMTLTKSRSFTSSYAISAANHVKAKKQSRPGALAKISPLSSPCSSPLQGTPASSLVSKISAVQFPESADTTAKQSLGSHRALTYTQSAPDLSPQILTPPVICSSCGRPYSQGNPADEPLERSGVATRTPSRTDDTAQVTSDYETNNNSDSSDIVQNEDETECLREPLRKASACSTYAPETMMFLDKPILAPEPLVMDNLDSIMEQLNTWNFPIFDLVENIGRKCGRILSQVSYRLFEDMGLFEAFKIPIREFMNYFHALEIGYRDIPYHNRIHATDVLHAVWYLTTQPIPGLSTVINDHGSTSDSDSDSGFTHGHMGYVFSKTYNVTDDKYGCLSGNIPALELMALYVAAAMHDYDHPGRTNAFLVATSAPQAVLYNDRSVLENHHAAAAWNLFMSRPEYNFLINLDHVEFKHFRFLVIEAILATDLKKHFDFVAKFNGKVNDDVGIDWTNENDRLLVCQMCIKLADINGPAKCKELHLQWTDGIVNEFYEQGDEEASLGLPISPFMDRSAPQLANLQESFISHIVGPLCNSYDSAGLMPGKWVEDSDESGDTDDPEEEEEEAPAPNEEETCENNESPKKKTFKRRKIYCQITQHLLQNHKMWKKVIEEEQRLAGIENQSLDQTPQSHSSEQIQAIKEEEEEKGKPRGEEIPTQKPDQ

Take `Cn1c(=O)c2c(ncn2CCN2CCN(c3ccccc3[N+](=O)[O-])CC2)n(C)c1=O` [KMUP-4, 7-[2-[4-(2-nitrobenzene)piperazinyl]ethyl]-1,3-dimethylxanthine]: the “effect on potency of isoproterenol or SNP (concentration-response curve shift)” value in assay [1] (1 μM pretreatment, endothelium-denuded rings, PE 10 μM) is “markedly increased the potency”. Further, the “inhibition of relaxation by L-NAME” value in assay [1] (E- rat thoracic aorta, L-NAME 100 μM) is recorded as “do not exhibit any significant inhibition”. Further, in assay [1] (E- rat thoracic aorta, ODQ 1 μM, SQ 22536 100 μM), the “relaxations in presence of ODQ or SQ 22536” value is given as “attenuated”. For the same molecule, in assay [1] (concentrations up to 30 and 100 μM, 4-AP and TEA respectively, endothelium-intact), the “vasorelaxations at high concentrations in presence of 4-AP and TEA” value is recorded as “not significantly affected”. Besides, in assay [1] (endothelium-denuded (E-) condition, PE 10 μM), the “maximal relaxation (Emax)” value worked out at 99±4.3%. Also, the pEC50 of vasorelaxation in assay [1] (endothelium-denuded aorta (E-)) is on record as 5.94±0.09; in assay [1] (endothelium-intact aorta), 6.45±0.12. Further, the “vasorelaxations with ODQ combined with SQ 22536” value in assay [1] (endothelium-intact or endothelium-denuded aortic rings) is listed as “additive effect to diminish the vasorelaxations”. The “vasorelaxant responses after pretreatment with L-NAME, ODQ, SQ 22536 or indomethacin” value in assay [1] (endothelium-intact rat thoracic aorta, L-NAME 100 μM, ODQ 1 μM, SQ 22536 100 μM, indomethacin 10 μM) is “reduced”. Besides, the “relaxation in the presence of 80 mM K+ solution versus PE” value in assay [1] (endothelium-intact rings precontracted with 80 mM K+, 1 nM-100 μM) is “great reduction of relaxation”. Besides, the “aortic relaxations in presence of K+ channel blockers” value in assay [1] (endothelium-intact, PE 10 μM, TEA 10 mM, glibenclamide 1 μM, 4-AP 100 μM, apamin 1 μM, ChTX 0.1 μM) is “reduced”. Besides, the “enzyme inhibitory activity for PDE4” value in assay [2] worked out at 33±1.7%. The “enzyme inhibitory activity for PDE5” value in assay [3] was 15±3.1%. For the same molecule, the “enzyme inhibitory activity for PDE3” value in assay [4] came to 56±2.8%. Besides, the “cAMP (pmol/10^5 Cells)” value in assay [5] (Table 1, 10 μM of test agent, RASMCs, 20 minutes) amounted to 15.42 ± 1.63 pmol/10^5 Cells; in assay [5] (Table 2, 10 μM of test agent alone), 15.54 ± 1.60 pmol/10^5 Cells; in assay [5] (Table 2, 10 μM of test agent plus SQ 22536 (100 μM)), 9.69 ± 0.75 pmol/10^5 Cells. Further, the “cGMP (fmol/10^5 cells)” value in assay [6] (Table 1, 100 μM of test agent, RASMCs, 20 minutes) stood at 55.28 ± 5.69 fmol/10^5 Cells; in assay [6] (Table 2, 100 μM of test agent alone), 55.35 ± 5.60 fmol/10^5 cells; in assay [6] (Table 2, 100 μM of test agent plus ODQ (10 μM)), 32.10 ± 2.63 fmol/10^5 cells; in assay [6] (Table 3, SNP (100 μM) plus agent (100 μM)), 81.24 ± 6.90 fmol/10^5 cells; in assay [6] (Table 3, agent alone, 100 μM) it was 55.10 ± 5.59 fmol/10^5 cells. Besides, the “time at which maximal eNOS protein expression was achieved” value in assay [7] (0.1 μM) was determined as 18 h. In addition, in assay [7] (0.1 μM (also 0.1 mM in source), 18 hours), the “expression of eNOS protein” value is recorded as “significantly increased”.
